Measurements published in patent US20230137849A1, “USE OF A COMPOUND OF THE DIURETICS CLASS FOR TREATING CANCER” (AZELEAD, priority 2017, published 2023).

Legend:
[1] = tested on: hematopoietic stem cells CD41:GFP accumulated in the AGM; assay: Zebrafish embryo test: HSC accumulated in the AGM (initiation of the metastatic process); assay type: in vivo; settings: althiazide 10 μM (FIG. 2; b187 prints 10 μl), embryos 25 hpf treated 24 h, vs DMSO
Description: A method for determining whether a molecule is capable of treating cancer in the pre-metastatic state has been described in international application WO 2011/007259. This method consists in isolating molecules capable of inhibiting the emergence of hematopoietic stem cells from the floor of the aorta without cell division, but by endothelial-to-hematopoietic transition. This emergence involves the loss of cell polarity of emerging cells, the loss of cellular junctions with these neighboring cells and the acquisition of migratory properties. This model is used because it mimics each stage of the epithelial-mesenchymal transition, the first stage of cancer metastasis. The endothelial-to-hematopoietic transition takes place in a region of the embryo called Aorta-Gonad-Mesonephros (AGM).
In order to evaluate the inhibition of the endothelial-to-hematopoietic transition, transgenic CD41:GFP (green fluorescent protein) embryos are used. HSCs express GFP under the control of the CD41 promoter, which allows them to be monitored in vivo under a fluorescence microscope. The read-out is the number of hematopoietic stem cells CD41:GFP accumulated in the AGM (mimicking the initiation of the metastatic process) and/or in the CHT of the zebrafish embryo (mimicking the progression of the metastatic process). […]

[2] = tested on: 4T1 cells; assay type: cell-based, mouse; settings: highest dose 100 μM, FIG. 8
Protocol: The cytotoxicity tests are carried out in cell culture in 96-well plates, on the 4T1 cell line. The cells are maintained in a DMEM culture medium supplemented with 10% fetal calf serum (control condition) or placed in the presence of an MTT solution (3-(4,5-dimethylthiazol-2-yl)-2,5-diphenyl tetrazolium bromide) at 1 mg/ml in DMEM medium supplemented with 10% fetal calf serum (100 μl per well). The cells are incubated at 37° C. and 5% CO2 for 4 hours. The reaction is stopped by the addition of 100 μl of a solution containing 10% of SDS and 0.01 M of HCl. The cells are placed in an incubator at 37° C. and 5% CO2 for 2 hours. The absorbance is measured between 570 and 590 nm. The negative control is performed on a well without cells, containing 200 μl of a 1 mg/ml solution of MTT diluted in DMEM culture medium supplemented with 10% fetal calf serum. The average of the measurements obtained is compared with the control wells: (average value of the compounds treated/average value of the controls)*100=% of the average value.
The 4T1 cells are derived from tumors of the mammary gland in mice.
In order to study the cytotoxic effects of althiazide in vitro, we analyze the cell death induced by treatment with althiazide by tetrazolium salt labeling MTT (3-(4,5-dimethylthiazol-2-yl)-2,5-diphenyltetrazolium bromide) on 4T1 cells. The amount of living cells in the well is assayed by spectrometry. The results are compared with those obtained after treatment with the control solution (FIG. 8). In this test, we observe a very low mortality of cells after treatment with althiazide (80% of living cells at the highest dose 100 μM). Cells treated with dasatinib have a much higher mortality rate, at much lower doses (80% live cells at the lowest 10 nM dose and 20% live cells at 100 μM).

[3] = tested on: SNAIL; assay: q-RT-PCR expression of EMT markers in MDA-MB-231 cells under hypoxia: SNAIL; assay type: cell-based, human; settings: althiazide 100 μM, hypoxic conditions (1% O2), vs control, FIG. 11
Protocol: The cell cultures are carried out on human breast cancer epithelial cell lines MDA-MB-231 (HTB-26™), resulting from metastases present in a pleural effusion of a patient with a mammary adenocarcinoma. This line is used as a triple negative cancer cell model (no expression of ER-type nuclear estrogen receptors, nuclear progesterone receptors or overexpression of the oncogene encoding HER2 protein (Human Epidermal Growth factor Receptor-2).
The cells were cultured in DMEM medium (Eurobio, Fance) supplemented with 10% fetal calf serum (FCS) (Eurobio, Fance) at 37° C., 5% CO2. The medium was changed every 3 days.
The cells were placed in a controlled atmosphere at 1% oxygen 24 hours before the application of the different treatments.
The expression of the mRNAs is measured by the q-RT-PCR method. The cells were seeded at the density of 500,000 cells/well in 6-well plates. After 24 hours at 37° C., 5% CO2 and 1% O2, the medium was renewed and added the various treatments. RNA was isolated using TRI Reagent® (sigma), assayed and retro-transcribed into complementary DNA using the PrimeScript RT Reagent Kit (Takara). The expression levels of the mRNA of the genes of interest were determined by quantitative PCR (LightCycler® 480 Instrument II) with the primers listed in Table 2: […]
The results are calculated using the Delta Delta Ct (Δ ΔCt) method.

C=CCSCC1Nc2cc(Cl)c(S(N)(=O)=O)cc2S(=O)(=O)N1 (racemic) [althiazide]
number of HSC accumulated in the AGM compared with reference embryos; local migration of HSC [1]: greater | number of HSC accumulated in the AGM compared with reference embryos; local migration of HSC ([1]; listed as thiazide): reduction of the junction loss and the local migration of HSC | living cells (MTT) [2]: 80% | change in expression of SNAIL [3]: −19%
